Tests used:
HiBit-BRM fusion protein = target: T1, HiBit-BRM fusion protein (Homo sapiens, UniProt P51531); assay: HiBiT-BRM cell-based degradation assay (Nano-Glo HiBiT Lytic Detection, 24 h); settings: HeLa cell line expressing HiBiT-BRM; for DC50: read-out: BRM HiBit Degradation IC50
T1 construct: expressed in transfected cells
In short: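 HeLa cells stably expressing HiBiT-BRM were treated for 24 h with compounds (10-point 3-fold dilutions, 30 μM final top dose, in duplicate). HiBiT was detected by lytic LgBiT complementation luminescence. % degradation was normalized to DMSO (high control) and 2 μM of a reference BRM/BRG1 degrader (low control).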

[1] = target: T2, HiBit-BRG1 fusion protein (Homo sapiens, UniProt P51532); assay: HiBiT-BRG1 cell-based degradation assay (Nano-Glo HiBiT Lytic Detection, 24 h); settings: HeLa cell line expressing HiBit-BRG1 and LgBit; for Dmax: read-out: BRG1 HiBit Degradation Maximum (%); for DC50: read-out: BRMG1 HiBit Degradation IC50
T2 construct: expressed in transfected cells
T2 sequence (P51532 whole entry, the tested form may be a part): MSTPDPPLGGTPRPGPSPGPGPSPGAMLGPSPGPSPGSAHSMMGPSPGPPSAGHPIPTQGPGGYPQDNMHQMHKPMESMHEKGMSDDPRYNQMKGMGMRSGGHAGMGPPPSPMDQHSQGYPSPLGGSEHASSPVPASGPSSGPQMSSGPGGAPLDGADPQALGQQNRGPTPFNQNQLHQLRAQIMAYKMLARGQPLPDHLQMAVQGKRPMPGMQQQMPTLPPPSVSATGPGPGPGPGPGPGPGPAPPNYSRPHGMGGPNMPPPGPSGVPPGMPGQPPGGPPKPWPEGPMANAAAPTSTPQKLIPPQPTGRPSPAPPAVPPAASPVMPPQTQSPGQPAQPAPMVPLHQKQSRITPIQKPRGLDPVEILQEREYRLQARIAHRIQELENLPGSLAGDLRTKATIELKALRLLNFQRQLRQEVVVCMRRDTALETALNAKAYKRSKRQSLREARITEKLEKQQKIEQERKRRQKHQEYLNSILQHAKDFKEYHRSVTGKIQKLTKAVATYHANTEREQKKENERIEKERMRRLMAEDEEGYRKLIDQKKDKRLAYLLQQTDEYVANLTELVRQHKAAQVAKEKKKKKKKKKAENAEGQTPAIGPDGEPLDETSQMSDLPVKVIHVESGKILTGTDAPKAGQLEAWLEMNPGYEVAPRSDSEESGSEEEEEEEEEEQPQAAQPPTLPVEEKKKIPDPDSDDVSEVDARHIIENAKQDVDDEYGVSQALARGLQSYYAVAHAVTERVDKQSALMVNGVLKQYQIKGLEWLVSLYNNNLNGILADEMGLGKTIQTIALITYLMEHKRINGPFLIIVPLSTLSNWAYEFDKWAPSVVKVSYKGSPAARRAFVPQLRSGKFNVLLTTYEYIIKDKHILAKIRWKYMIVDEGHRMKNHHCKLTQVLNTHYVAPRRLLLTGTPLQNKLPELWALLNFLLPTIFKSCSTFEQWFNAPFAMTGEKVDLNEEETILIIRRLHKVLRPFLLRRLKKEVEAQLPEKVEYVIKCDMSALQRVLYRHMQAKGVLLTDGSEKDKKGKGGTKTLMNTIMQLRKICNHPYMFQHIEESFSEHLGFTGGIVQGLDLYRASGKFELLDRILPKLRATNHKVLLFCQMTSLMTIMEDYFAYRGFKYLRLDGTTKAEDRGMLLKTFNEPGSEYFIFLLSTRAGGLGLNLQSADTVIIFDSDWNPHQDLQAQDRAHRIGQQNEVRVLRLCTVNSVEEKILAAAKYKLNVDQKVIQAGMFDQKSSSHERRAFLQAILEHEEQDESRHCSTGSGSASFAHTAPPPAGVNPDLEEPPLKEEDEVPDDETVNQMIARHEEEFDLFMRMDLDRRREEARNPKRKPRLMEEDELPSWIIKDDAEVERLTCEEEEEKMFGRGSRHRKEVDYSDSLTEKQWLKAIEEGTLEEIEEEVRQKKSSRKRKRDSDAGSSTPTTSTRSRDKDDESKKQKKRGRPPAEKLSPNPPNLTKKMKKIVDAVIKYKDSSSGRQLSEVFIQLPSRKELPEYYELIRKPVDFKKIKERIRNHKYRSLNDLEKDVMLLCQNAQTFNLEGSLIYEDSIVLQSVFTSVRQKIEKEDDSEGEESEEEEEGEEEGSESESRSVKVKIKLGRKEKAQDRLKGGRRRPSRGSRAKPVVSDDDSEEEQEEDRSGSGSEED
In short: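 HeLa cells stably expressing HiBiT-BRG1 plus LgBit, 5000/well, treated 24 h, then lysed with Nano-Glo HiBiT lytic reagent and luminescence read. % degradation normalised between DMSO (high control) and 2 μM reference BRM/BRG1 degrader (low control).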

T1 sequence (P51531 whole entry, the tested form may be a part): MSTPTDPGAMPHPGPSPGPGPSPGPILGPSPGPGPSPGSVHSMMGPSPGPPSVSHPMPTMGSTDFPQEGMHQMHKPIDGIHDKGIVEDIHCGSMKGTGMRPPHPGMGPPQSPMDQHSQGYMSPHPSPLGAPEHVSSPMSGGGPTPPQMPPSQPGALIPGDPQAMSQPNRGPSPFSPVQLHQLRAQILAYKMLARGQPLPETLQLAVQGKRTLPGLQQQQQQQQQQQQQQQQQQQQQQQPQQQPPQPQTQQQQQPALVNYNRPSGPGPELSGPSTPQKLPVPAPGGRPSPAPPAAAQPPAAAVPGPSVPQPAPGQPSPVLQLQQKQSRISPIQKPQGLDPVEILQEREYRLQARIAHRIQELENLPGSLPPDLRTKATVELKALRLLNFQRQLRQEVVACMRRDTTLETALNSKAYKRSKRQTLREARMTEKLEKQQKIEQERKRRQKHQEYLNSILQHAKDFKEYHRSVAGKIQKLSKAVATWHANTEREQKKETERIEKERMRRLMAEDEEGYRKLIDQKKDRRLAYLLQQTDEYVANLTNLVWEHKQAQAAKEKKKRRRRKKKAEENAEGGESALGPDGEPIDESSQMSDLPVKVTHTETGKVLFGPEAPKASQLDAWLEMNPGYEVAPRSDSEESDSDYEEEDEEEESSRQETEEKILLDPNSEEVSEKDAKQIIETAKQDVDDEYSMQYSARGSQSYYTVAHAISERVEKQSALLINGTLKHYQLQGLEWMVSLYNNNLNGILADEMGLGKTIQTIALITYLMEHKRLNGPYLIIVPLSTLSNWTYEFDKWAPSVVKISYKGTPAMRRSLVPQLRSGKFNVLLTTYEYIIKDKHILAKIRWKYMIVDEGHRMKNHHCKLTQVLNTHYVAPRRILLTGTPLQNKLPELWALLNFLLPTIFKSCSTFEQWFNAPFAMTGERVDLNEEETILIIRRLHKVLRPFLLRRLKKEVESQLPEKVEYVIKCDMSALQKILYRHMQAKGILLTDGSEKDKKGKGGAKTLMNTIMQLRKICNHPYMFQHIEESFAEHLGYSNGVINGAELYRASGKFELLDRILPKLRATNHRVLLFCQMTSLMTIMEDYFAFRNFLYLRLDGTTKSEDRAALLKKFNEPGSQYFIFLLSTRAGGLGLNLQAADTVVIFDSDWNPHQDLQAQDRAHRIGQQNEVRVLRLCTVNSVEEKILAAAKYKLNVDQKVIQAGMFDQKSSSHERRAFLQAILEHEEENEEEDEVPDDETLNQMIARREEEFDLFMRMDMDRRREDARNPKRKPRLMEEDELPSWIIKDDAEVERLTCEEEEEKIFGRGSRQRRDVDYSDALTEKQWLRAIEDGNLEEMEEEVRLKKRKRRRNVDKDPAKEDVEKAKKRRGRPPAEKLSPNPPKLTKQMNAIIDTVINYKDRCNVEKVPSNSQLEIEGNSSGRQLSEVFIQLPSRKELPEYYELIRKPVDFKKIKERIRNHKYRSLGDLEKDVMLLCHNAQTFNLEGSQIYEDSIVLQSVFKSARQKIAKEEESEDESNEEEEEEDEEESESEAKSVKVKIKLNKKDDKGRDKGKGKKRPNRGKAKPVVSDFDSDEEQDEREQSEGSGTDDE

| SMILES | BRM HiBit Degradation Maximum (%) (HiBit-BRM fusion protein) | Dmax [1] [%] | DC50 (HiBit-BRM fusion protein) [nM] | DC50 [1] [nM] |
| --- | --- | --- | --- | --- |
| Cc1ncsc1-c1ccc(CNC(=O)[C@@H]2C[C@@H](O)CN2C(=O)[C@@H](NC(=O)CNC(=O)[C@H]2CCc3[nH]c4nnc(-c5ccccc5O)cc4c3C2)C(C)(C)C)cc1 (single isomer, unassigned) [Compound 191] | C (“C” indicates maximum degradation < 50%) | < 50 | – | – |
| Cc1ncsc1-c1ccc([C@H](C)NC(=O)[C@@H]2C[C@@H](O)CN2C(=O)[C@@H](c2cc(N3CCN(C(=O)[C@@H]4CCc5[nH]c6nnc(-c7ccccc7O)cc6c5C4)CC3)no2)C(C)C)cc1 (single isomer, unassigned) [Compound 192] | A (“A” indicates maximum degradation ≥ 75%) | < 50 | > 10 | – |
| Cc1ncsc1-c1ccc(CNC(=O)[C@@H]2C[C@@H](O)CN2C(=O)[C@@H](NC(=O)CCCNC(=O)[C@@H]2CCc3[nH]c4nnc(-c5ccccc5O)cc4c3C2)C(C)(C)C)cc1 (single isomer, unassigned) [Compound 196] | B (“B” indicates maximum degradation ≥ 50%) | < 50 | > 100 | – |
| Cc1ncsc1-c1ccc(CNC(=O)[C@@H]2C[C@@H](O)CN2C(=O)[C@@H](NC(=O)CNC(=O)[C@@H]2CCc3[nH]c4nnc(-c5ccccc5O)cc4c3C2)C(C)(C)C)cc1 (single isomer, unassigned) [Compound 197] | C (“C” indicates maximum degradation < 50%) | < 50 | – | – |
| Cc1ncsc1-c1ccc([C@H](C)NC(=O)[C@@H]2C[C@@H](O)CN2C(=O)[C@@H](c2cc(OCCN3CC(CCc4[nH]c5nnc(-c6ccccc6O)cc5c4C)C3)no2)C(C)C)cc1 (single isomer, unassigned) [Compound 198] | A (“A” indicates maximum degradation ≥ 75%) | > 75 | > 100 | > 100 |
| Cc1ncsc1-c1ccc([C@H](C)NC(=O)[C@@H]2C[C@@H](O)CN2C(=O)[C@@H](c2cc(OCCN[C@H]3CCc4[nH]c5nnc(-c6ccccc6O)cc5c4C3)no2)C(C)C)cc1 (single isomer, unassigned) [Compound 200] | A (“A” indicates maximum degradation ≥ 75%) | < 50 | > 10 | – |
| Cc1ncsc1-c1ccc([C@H](C)NC(=O)[C@@H]2C[C@@H](O)CN2C(=O)[C@H](c2cc(C3CCN(C(=O)c4cc5cc(-c6ccccc6O)nnc5[nH]4)CC3)no2)C(C)C)cc1 (single isomer, unassigned) [Compound 201] | C (“C” indicates maximum degradation < 50%) | < 50 | – | – |
| Cc1ncsc1-c1ccc([C@H](C)NC(=O)[C@@H]2C[C@@H](O)CN2C(=O)[C@H](c2cc(CCCN3CC(c4cc5cc(-c6ccccc6O)nnc5[nH]4)C3)no2)C(C)C)cc1 (single isomer, unassigned) [Compound 202] | C (“C” indicates maximum degradation < 50%) | < 50 | – | – |
| Cc1ncsc1-c1ccc([C@H](C)NC(=O)[C@@H]2C[C@@H](O)CN2C(=O)[C@@H](c2cc(C3CCN(C(=O)c4cc5cc(-c6ccccc6O)nnc5[nH]4)CC3)no2)C(C)C)cc1 (single isomer, unassigned) [Compound 203] | A (“A” indicates maximum degradation ≥ 75%) | < 50 | > 100 | – |
| Cc1ncsc1-c1ccc([C@H](C)NC(=O)[C@@H]2C[C@@H](O)CN2C(=O)[C@@H](c2cc(CCCN3CC(c4cc5cc(-c6ccccc6O)nnc5[nH]4)C3)no2)C(C)C)cc1 (single isomer, unassigned) [Compound 204] | A (“A” indicates maximum degradation ≥ 75%) | < 50 | > 100 | – |
| Cc1ncsc1-c1ccc(CNC(=O)[C@@H]2C[C@@H](O)CN2C(=O)[C@H](c2cc(OCCN3CC(c4cc5cc(-c6ccccc6O)nnc5[nH]4)C3)no2)C(C)C)cc1 (single isomer, unassigned) [Compound 207] | C (“C” indicates maximum degradation < 50%) | < 50 | – | – |
| Cc1ncsc1-c1ccc(CNC(=O)[C@@H]2C[C@@H](O)CN2C(=O)[C@@H](c2cc(OCCN3CC(c4cc5cc(-c6ccccc6O)nnc5[nH]4)C3)no2)C(C)C)cc1 (single isomer, unassigned) [Compound 209] | A (“A” indicates maximum degradation ≥ 75%) | < 50 | > 10 | – |
| Cc1ncsc1-c1ccc([C@H](C)NC(=O)[C@@H]2C[C@@H](O)CN2C(=O)[C@H](c2cc(OCCN3CC(c4cc5cc(-c6ccccc6O)nnc5[nH]4)C3)no2)C(C)C)cn1 (single isomer, unassigned) [Compound 218] | C (“C” indicates maximum degradation < 50%) | < 50 | – | – |
| Cc1ncsc1-c1ccc([C@H](C)NC(=O)[C@@H]2C[C@@H](O)CN2C(=O)[C@@H](c2cc(OCCN3CC(c4cc5cc(-c6ccccc6O)nnc5[nH]4)C3)no2)C(C)C)cn1 (single isomer, unassigned) [Compound 219] | A (“A” indicates maximum degradation ≥ 75%) | < 50 | > 100 | – |
| Cc1ncsc1-c1ccc([C@H](C)NC(=O)[C@@H]2C[C@@H](O)CN2C(=O)[C@@H](c2cc(OCCN3CCC[C@H]3c3c[nH]c4nnc(-c5ccccc5O)cc34)no2)C(C)C)cc1 (single isomer, unassigned) [Compound 227] | C (“C” indicates maximum degradation < 50%) | < 50 | – | – |
| Cc1ncsc1-c1ccc([C@H](C)NC(=O)[C@@H]2C[C@@H](O)CN2C(=O)[C@@H](c2cc(OCCN3CCC[C@@H]3c3c[nH]c4nnc(-c5ccccc5O)cc34)no2)C(C)C)cc1 (single isomer, unassigned) [Compound 228] | C (“C” indicates maximum degradation < 50%) | < 50 | – | – |
| Cc1ncsc1-c1ccc([C@H](C)NC(=O)[C@@H]2C[C@@H](O)CN2C(=O)[C@@H](c2cc(OCCN3CC[C@@H](c4c(C)[nH]c5nnc(-c6ccccc6O)cc45)C3)no2)C(C)C)cc1 (single isomer, unassigned) [Compound 232] | C (“C” indicates maximum degradation < 50%) | < 50 | > 1000 | – |
| Cc1ncsc1-c1ccc([C@H](C)NC(=O)[C@@H]2C[C@@H](O)CN2C(=O)[C@@H](c2cc(N3CCN(CC45CC(c6cc7cc(-c8ccccc8O)nnc7[nH]6)(C4)C5)CC3)no2)C(C)C)cc1 (single isomer, unassigned) [Compound 233] | A (“A” indicates maximum degradation ≥ 75%) | > 75 | > 10 | > 10 |
| Cc1ncsc1-c1ccc([C@H](C)NC(=O)[C@@H]2C[C@@H](O)CN2C(=O)[C@@H](c2cc(N3CCN(C(=O)C(=O)N4CC(c5cc6cc(-c7ccccc7O)nnc6[nH]5)C4)CC3)no2)C(C)C)cc1 (single isomer, unassigned) [Compound 234] | A (“A” indicates maximum degradation ≥ 75%) | < 50 | > 100 | – |
| Cc1ncsc1-c1ccc([C@H](C)NC(=O)[C@@H]2C[C@@H](O)CN2C(=O)[C@@H](c2cc(OCCCN3CC(c4cc5cc(-c6ccccc6O)nnc5[nH]4)C3)no2)C(C)C)cc1 (single isomer, unassigned) [Compound 237] | C (“C” indicates maximum degradation < 50%) | < 50 | – | – |

Source: patent US20240024488A1, “COMPOUNDS AND USES THEREOF” (Foghorn Therapeutics Inc., priority 2020, published 2024)
